Drawing on ChEMBL document CHEMBL3045245, “Synthesis and antitumor activities of certain novel 2-amino-9-(4-halostyryl)-4H-pyrano[3,2-h]quinoline derivatives” (Med Chem Res, 2012), this text covers IC50 and viability for 5 compounds.

≈ marks a conversion by molar mass, not a printed value.

For experiment [1], the system named is MCF7. As to the kind of experiment: Cytotoxicity against Homo sapiens (human) MCF7 cells after 48 hr by MTT assay. Format: functional, cell-based. As to conditions: MCF7, 48 h.
A short description of experiment [2]: Cytotoxicity against Homo sapiens (human) HCT cells assessed as cell viability at 50 ug/ml after 48 hr by MTT assay. Format: functional. Conditions: read-out: Activity.
Experiment [3] deals with HepG2. As to the kind of experiment: Cytotoxicity against Homo sapiens (human) HepG2 cells assessed as cell viability at 12.5 ug/ml after 48 hr by MTT assay. Format: functional. Conditions: HepG2, 48 h, read-out: Activity.
Experiment [4] in a line: Cytotoxicity against Homo sapiens (human) HCT cells assessed as cell viability at 1.56 ug/ml after 48 hr by MTT assay. As to conditions: read-out: Activity. Format: functional.
For experiment [5], the system named is HepG2. As to the kind of experiment: Cytotoxicity against Homo sapiens (human) HepG2 cells after 48 hr by MTT assay. Format: functional, cell-based. Conditions: HepG2, 48 h. On the technique in general: Tetrazolium dyes change colour on reduction, which living cells bring about.
Experiment [6] can be described thus: Cytotoxicity against Homo sapiens (human) HCT cells after 48 hr by MTT assay. It is filed as functional, cell-based.
The subject of experiment [7] is HepG2. The experiment can be described thus: Cytotoxicity against Homo sapiens (human) HepG2 cells assessed as cell viability at 25 ug/ml after 48 hr by MTT assay. It is filed as functional. Conditions: HepG2, 48 h, read-out: Activity.
In experiment [8] the test system is MCF7. As to the kind of experiment: Cytotoxicity against Homo sapiens (human) MCF7 cells assessed as cell viability at 50 ug/ml after 48 hr by MTT assay. Format: functional. As to conditions: MCF7, 48 h, read-out: Activity.
For experiment [9], the system named is MCF7. The experiment can be described thus: Cytotoxicity against Homo sapiens (human) MCF7 cells assessed as cell viability at 1.56 ug/ml after 48 hr by MTT assay. It is filed as functional. Conditions: MCF7, 48 h, read-out: Activity.
In experiment [10] the test system is HepG2. The experiment can be described thus: Cytotoxicity against Homo sapiens (human) HepG2 cells assessed as cell viability at 6.25 ug/ml after 48 hr by MTT assay. Format: functional. Conditions: HepG2, 48 h, read-out: Activity.
Experiment [11] in a line: Cytotoxicity against Homo sapiens (human) HCT cells assessed as cell viability at 25 ug/ml after 48 hr by MTT assay. It is filed as functional. As to conditions: read-out: Activity.
In experiment [12] the test system is MCF7. As to the kind of experiment: Cytotoxicity against Homo sapiens (human) MCF7 cells assessed as cell viability at 6.25 ug/ml after 48 hr by MTT assay. As to conditions: MCF7, 48 h, read-out: Activity. Format: functional.
In experiment [13] the test system is HepG2. As to the kind of experiment: Cytotoxicity against Homo sapiens (human) HepG2 cells assessed as cell viability at 50 ug/ml after 48 hr by MTT assay. It is filed as functional. As to conditions: HepG2, 48 h, read-out: Activity.
Experiment [14] has as its system MCF7. The experiment can be described thus: Cytotoxicity against Homo sapiens (human) MCF7 cells assessed as cell viability at 3.125 ug/ml after 48 hr by MTT assay. It is filed as functional. As to conditions: MCF7, 48 h, read-out: Activity.
The nature of experiment [15]: Cytotoxicity against Homo sapiens (human) HCT cells assessed as cell viability at 6.25 ug/ml after 48 hr by MTT assay. Format: functional. As to conditions: read-out: Activity.
Experiment [16] in a line: Cytotoxicity against Homo sapiens (human) HCT cells assessed as cell viability at 3.125 ug/ml after 48 hr by MTT assay. It is filed as functional. Conditions: read-out: Activity.
Experiment [17] concerns HepG2. As to the kind of experiment: Cytotoxicity against Homo sapiens (human) HepG2 cells assessed as cell viability at 3.125 ug/ml after 48 hr by MTT assay. It is filed as functional. As to conditions: HepG2, 48 h, read-out: Activity.
The test system of experiment [18] is HepG2. As to the kind of experiment: Cytotoxicity against Homo sapiens (human) HepG2 cells assessed as cell viability at 1.56 ug/ml after 48 hr by MTT assay. It is filed as functional. Conditions: HepG2, 48 h, read-out: Activity.
Experiment [19] deals with MCF7. As to the kind of experiment: Cytotoxicity against Homo sapiens (human) MCF7 cells assessed as cell viability at 12.5 ug/ml after 48 hr by MTT assay. As to conditions: MCF7, 48 h, read-out: Activity. Format: functional.
Experiment [20] has as its system MCF7. As to the kind of experiment: Cytotoxicity against Homo sapiens (human) MCF7 cells assessed as cell viability at 25 ug/ml after 48 hr by MTT assay. Conditions: MCF7, 48 h, read-out: Activity. It is filed as functional.
A short description of experiment [21]: Cytotoxicity against Homo sapiens (human) HCT cells assessed as cell viability at 12.5 ug/ml after 48 hr by MTT assay. It is filed as functional. Conditions: read-out: Activity.

A word on the IC50: it is the concentration needed to halve the response being measured. The low end stands for greater potency in that assay, the high end for weaker potency in that assay. In the case of `N#CC1=C(N)Oc2c(ccc3ccc(/C=C/c4ccc(F)cc4)nc23)C1c1ccc(Br)cc1` (stereo not given), the half-maximal inhibitory concentration (IC50) with MCF7 [1] is 42.5 µg/mL (≈ 85.3 µM); with HepG2 [5], more than 50 µg/mL; in experiment [6] it was more than 50 µg/mL. The viability at 50 µg/mL in experiment [2] turned out to be 57.6%; in the experiment on MCF7 [8], 39.5%; in the experiment with HepG2 [13], 63.4%. Moreover, the viability at 12.5 µg/mL turned out to be 83.4% with HepG2 [3], 80.2% in the experiment with MCF7 [19] and 91.1% in experiment [21]. The viability at 1.56 µg/mL (in [4]; with MCF7 [9]; in the experiment with HepG2 [18]) was 100% each time. The viability at 25 µg/mL in the experiment with HepG2 [7] stood at 74.8%; in [11], 83.4%; with MCF7 [20], 67.8%. For the same compound, the figures for the viability at 6.25 µg/mL (in the experiment on HepG2 [10]; in the experiment on MCF7 [12]; in [15]) were 97.2%, 91.8% and 94.8%, respectively. Besides, the viability at 3.125 µg/mL in the experiment with MCF7 [14] is 96.9%; in [16], 98.6%; in the experiment on HepG2 [17], 98.9%.

Consider `CCOC(=O)C1=C(N)Oc2c(ccc3ccc(/C=C/c4ccc(Br)cc4)nc23)C1c1ccc(Br)cc1` (stereo not given), for which the 50% inhibitory concentration (IC50) in the experiment on MCF7 [1] was 2.4 µg/mL (≈ 3.96 µM); in the experiment on HepG2 [5], 6.1 µg/mL (≈ 10.1 µM); in experiment [6] it was 12.8 µg/mL (≈ 21.1 µM). Also, the viability at 50 µg/mL in experiment [2] stood at 26%; in the experiment with MCF7 [8], 13%; in the experiment on HepG2 [13], 23.4%. Further, the viability at 12.5 µg/mL with HepG2 [3] was 42.2%; with MCF7 [19], 23.8%; in experiment [21], 52.2%. In addition, the viability at 1.56 µg/mL in [4] came out at 86%; in the experiment with MCF7 [9], 62.3%; in the experiment on HepG2 [18] it was 79.6%. Also, the viability at 25 µg/mL in the experiment on HepG2 [7] came to 36.1%; in experiment [11] it was 31.4%; in the experiment on MCF7 [20] it was 17.9%. The viability at 6.25 µg/mL in the experiment with HepG2 [10] is 48.6%; in the experiment on MCF7 [12] it was 31.6%; in [15] it was 62.8%. The viability at 3.125 µg/mL in the experiment with MCF7 [14] came out at 45.5%; in [16], 76.6%; in the experiment on HepG2 [17], 61%.

Consider `N#CC1=C(N)Oc2c(ccc3ccc(/C=C/c4ccc(Br)cc4)nc23)C1c1ccc(Cl)cc1` (stereo not given), for which the IC50 came to 15.9 µg/mL (≈ 30.9 µM) in the experiment on MCF7 [1], 7.5 µg/mL (≈ 14.6 µM) with HepG2 [5] and 10.2 µg/mL (≈ 19.8 µM) in [6]. The viability at 50 µg/mL was 22.8% in [2], 29.4% in the experiment on MCF7 [8] and 25.2% with HepG2 [13]. Further, the viability at 12.5 µg/mL in the experiment with HepG2 [3] came out at 39.4%; in the experiment with MCF7 [19], 53.1%; in [21], 41.9%. Besides, the viability at 1.56 µg/mL in experiment [4] is 98%; in the experiment with MCF7 [9], 80.6%; with HepG2 [18], 77.9%. In addition, the viability at 25 µg/mL in the experiment with HepG2 [7] is 29%; in [11], 30.3%; with MCF7 [20], 41.2%. The viability at 6.25 µg/mL in the experiment with HepG2 [10] is 53.1%; in the experiment with MCF7 [12], 64.7%; in experiment [15] it was 74.9%. In addition, the viability at 3.125 µg/mL amounted to 73% in the experiment with MCF7 [14], 89.8% in [16] and 64.4% in the experiment on HepG2 [17].

Take `CCOC(=O)C1=C(N)Oc2c(ccc3ccc(/C=C/c4ccc(Cl)cc4)nc23)C1c1ccc(Br)cc1` (stereo not given): the IC50 in the experiment on MCF7 [1] is 10.3 µg/mL (≈ 18.3 µM); in the experiment on HepG2 [5], 28.6 µg/mL (≈ 50.9 µM); in experiment [6] it was 20.4 µg/mL (≈ 36.3 µM). The viability at 50 µg/mL in experiment [2] came to 30.7%; in the experiment on MCF7 [8], 29.7%; with HepG2 [13], 39.8%. Besides, the viability at 12.5 µg/mL was determined as 61.9% with HepG2 [3], 45.6% with MCF7 [19] and 61.3% in experiment [21]. In addition, the viability at 1.56 µg/mL came to 82.9% in experiment [4], 80.9% in the experiment with MCF7 [9] and 89.4% in the experiment on HepG2 [18]. Also, the viability at 25 µg/mL was 53.4% in the experiment on HepG2 [7], 45.8% in experiment [11] and 37.9% in the experiment with MCF7 [20]. Also, the viability at 6.25 µg/mL in the experiment with HepG2 [10] was found to be 69.7%; in the experiment on MCF7 [12], 63.5%; in [15], 70.4%. Moreover, the viability at 3.125 µg/mL with MCF7 [14] is 76%; in [16], 74.3%; in the experiment on HepG2 [17], 76.3%.

As to `CCOC(=O)C1=C(N)Oc2c(ccc3ccc(/C=C/c4ccc(F)cc4)nc23)C1c1ccc(Cl)cc1` (stereo not given), the figures for the IC50 (in the experiment with MCF7 [1]; with HepG2 [5]; in experiment [6]) were 37.9 µg/mL (≈ 75.7 µM), 47.5 µg/mL (≈ 94.8 µM) and 26.2 µg/mL (≈ 52.3 µM), respectively. Also, the viability at 50 µg/mL worked out at 19.8% in experiment [2], 34.6% in the experiment with MCF7 [8] and 45.2% in the experiment on HepG2 [13]. Moreover, the viability at 12.5 µg/mL in the experiment on HepG2 [3] is 79.4%; in the experiment with MCF7 [19], 73.5%; in experiment [21], 69.5%. For the same compound, the viability at 1.56 µg/mL in experiment [4] stood at 98.9%; in the experiment with MCF7 [9], 98.5%; in the experiment on HepG2 [18] it was 98.9%. The viability at 25 µg/mL is 69% in the experiment on HepG2 [7], 51.3% in experiment [11] and 61.2% in the experiment on MCF7 [20]. The viability at 6.25 µg/mL was 85.1% with HepG2 [10], 84.7% in the experiment with MCF7 [12] and 73.1% in experiment [15]. Also, the viability at 3.125 µg/mL with MCF7 [14] was 92.1%; in [16], 80.6%; in the experiment on HepG2 [17], 96.4%.
